We go through ten compounds from patent publication US20070249637A1, “Inhibitors Of Hepatitis C Virus Protease, And Compositions And Treatments Using The Same” (priority 2004, published 2007).

Data set [1] addresses T1, full-length NS3-NS4A enzyme (Hepatitis C virus genotype 1a, UniProt P27958).
T1 construct: 3 nM full-length NS3-NS4A enzyme
Kind of data set: HCV protease assay (continuous FRET, full-length enzyme). The class given is biochemical. Particulars: 3 nM full-length NS3-NS4A, 3 uM depsipeptide FRET substrate S1; competitive inhibition fit. The procedure:
HCV protease activity and compound inhibition was monitored using a continuous, fluorescence resonance energy transfer (FRET) assay. Test compounds at various concentrations were added to assay buffer (50 mM MOPS pH 7.5, 50 mM NaCl, 20% glycerol, 0.025% Triton-X 100, 1 mM tris(2-carboxyethyl)phosphine) containing 3 uM depsipeptide FRET substrate S1 (Anaspec) (see Taliani et al. Analytical Biochemistry, 240, 60-67 (1996)) in a white, non-binding 96-well plate (Corning). The reaction was started by the addition of 3 nM full-length NS3-NS4A enzyme. The increase in fluorescence intensity following peptide cleavage was monitored using a Safire fluorescence plate reader (Tecan). The excitation and emission wavelengths were 340 nm and 500 nm, respectively. Inhibition constants (KI) were calculated by non-linear regression analysis using an equation derived for competitive inhibition.

Data set [2] can be described thus: in vitro. The conditions noted are these: human; 50% reduction of firefly luciferase expression, 3 days incubation; read-out: Replicon CC50. The class given is cell-based. The procedure:
(§1) Cell-based antiviral activity was evaluated in the previously described HCV dual reporter subgenomic replicon system (the '075 application). With this system, the effects of a compound on both HCV replication and cell viability can be simultaneously determined by measuring the intracellular levels of two separate reporter proteins. The dicistronic selectable replicon contains the Renilla luciferase gene such that Renilla luciferase activity within stably-transfected cells serves as a marker of HCV replication. The firefly luciferase gene is stably integrated into and expressed by the Huh-7 host cells. Since firefly luciferase activity is dependent upon cellular transcription and translation, firefly luciferase activity serves as an indicator of cell viability.
(§2) The dual reporter selectable replicon cell line (B6b) was maintained in DMEM supplemented with 10% FBS, L-glutamine, non-essential amino acids, penicillin, streptomycin, and selection agents (200 ug/ml G418 and 6 ug/ml blastocidin). On the first day of the experiment, cells were trypsinized, washed, and diluted in medium lacking the selection agents. Cells were transferred to 96-well, black-walled, clear bottom plates at a density of 2×10^4 cells in 150 ul of medium per well. Cells were allowed to settle for 60 to 90 minutes while compounds were being prepared. Each compound was initially diluted to a 4× working stock (2.56% DMSO in tissue culture medium) that was then serially diluted nine times in half log increments in medium with 2.56% DMSO. Fifty microliters of each dilution were then added in triplicate to the plated cells in order to obtain final IX compound concentrations with 0.64% DMSO. Typical testing concentrations ranged from 320 uM to 10 nM. Control wells containing 0.64% DMSO without compound were also included on each plate.
(§3) After 3 days of incubation under humidity at 37° C. with 5% CO2, plates were microscopically examined for compound precipitation and cell death. Tissue culture medium was then aspirated and cells were lysed with 20 ul of 1× Passive Lysis Buffer (Promega, Madison, Wis.). Reporter activity was measured using a MicroBeta Jet 1450 (Perkin Elmer, Boston, Mass.) following sequential 50 ul additions of firefly and Renilla luciferase substrates as described in the manufacturers protocol (Promega). Luciferase activities were expressed as a percentage of the signals observed in the compound-free control wells. The amount of compound required to reduce Renilla luciferase expression by 50% is defined as the 50% effective concentration, or EC50. The amount of compound that reduces firefly luciferase expression by 50% is defined as the 50% cytotoxic concentration, or CC50. A therapeutic index (TI) is calculated by dividing the CC50 by the EC50.

Data set [3] has as its system HCV dual reporter subgenomic replicon (B6b cell line). Kind of data set: HCV dual reporter subgenomic replicon assay, Renilla luciferase (antiviral activity). The class given is cell-based. The conditions noted are these: Hepatitis C virus, 72 h; 50% reduction of Renilla luciferase expression, 3 days incubation. The procedure: The compounds described herein were tested for antiviral activity utilizing a dual-reporter replicon assay as described in U.S. patent application Ser. No. 10/818,075 (the '075 application), filed Apr. 5, 2004. The disclosure of the '075 application is incorporated herein.
as §1, §2, §3

The structures appear in SMILES notation. Several values for one entry are separate records, joined by “and”; a condition that tells them apart may be missing. Equal values may be shown once. Some results are limits rather than exact numbers.

T1 sequence (P27958 1027-1657): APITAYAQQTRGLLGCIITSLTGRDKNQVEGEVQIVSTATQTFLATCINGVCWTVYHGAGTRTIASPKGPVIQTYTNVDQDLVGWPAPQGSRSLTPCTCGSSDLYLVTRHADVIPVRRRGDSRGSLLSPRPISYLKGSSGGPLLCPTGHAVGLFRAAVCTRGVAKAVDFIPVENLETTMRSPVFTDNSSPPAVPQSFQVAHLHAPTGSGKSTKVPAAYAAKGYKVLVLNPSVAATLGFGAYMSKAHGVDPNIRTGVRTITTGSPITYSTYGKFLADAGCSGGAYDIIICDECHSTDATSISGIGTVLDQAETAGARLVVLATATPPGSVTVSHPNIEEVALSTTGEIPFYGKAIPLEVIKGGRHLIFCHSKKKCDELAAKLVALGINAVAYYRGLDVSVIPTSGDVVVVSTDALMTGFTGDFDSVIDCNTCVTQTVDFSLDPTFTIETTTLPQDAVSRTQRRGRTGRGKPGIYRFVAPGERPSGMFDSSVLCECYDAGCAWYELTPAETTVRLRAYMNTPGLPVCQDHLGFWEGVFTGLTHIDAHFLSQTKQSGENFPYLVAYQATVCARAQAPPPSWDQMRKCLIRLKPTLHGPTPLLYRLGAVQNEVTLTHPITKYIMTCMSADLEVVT
T1 sequence (P27958 1658-1711): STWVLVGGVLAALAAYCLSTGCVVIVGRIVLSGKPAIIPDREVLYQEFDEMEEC

As for `O=C(N[C@H]1CCCCC/C=C\[C@@H]2C[C@@]2(C(=O)O)NC(=O)[C@@H]2C[C@@H](Oc3nc(-c4ccccn4)nc4sccc34)CN2C1=O)OC1CCCC1` [Example 26, (2R,6S,12Z,13aS,14aR,16aS)-6-{[(Cyclopentyloxy)carbonyl]amino}-5,16-dioxo-2-[(2-pyridin-2-ylthieno[2,3-d]pyrimidin-4-yl)oxy]-1,2,3,6,7,8,9,10,11,13a,14,15,16,16a-tetradecahydrocyclopropa[e]pyrrolo[1,2-a][1,4]diazacyclopentadecine-14a(5H)-carboxylic acid], the Ki (usually the dissociation constant of the complex between target and ligand, obtained from inhibition or displacement) in data set [1] came to 8.5 nM. The CC50 (usually the concentration at which the toxic effect on the cells reaches its halfway point) at 3 days in data set [2] was 117 µM. In addition, the EC50 – broadly, the concentration at which the effect is half-maximal – in data set [3] amounted to 100 nM.
On the same counts, the results for `Cc1cc(-c2nc(O[C@@H]3C[C@H]4C(=O)N[C@]5(C(=O)O)C[C@H]5/C=C\CCCCC[C@H](NC(=O)CC5CC5)C(=O)N4C3)c3sccc3n2)n(C)n1` [Example 63, (2R,6S,12Z,13aS,14aR,16aS)-6-[(cyclopropylacetyl)amino]-2-{[2-(1,3-dimethyl-1H-pyrazol-5-yl)thieno[3,2-d]pyrimidin-4-yl]oxy}-5,16-dioxo-1,2,3,6,7,8,9,10,11,13a,14,15,16,16a-tetradecahydrocyclopropa[e]pyrrolo[1,2-a][1,4]diazacyclopentadecine-14a(5H)-carboxylic acid] are 8.1 nM, more than 320 µM and 11 nM.
The like results for `CC(C)(C)OC(=O)N[C@H]1CCCCC/C=C\[C@@H]2C[C@@]2(C(=O)O)NC(=O)[C@@H]2C[C@@H](Oc3nc(-c4ccccn4)nc4sccc34)CN2C1=O` [Example 29, (2R,6S,12Z,13aS,14aR,16aS)-6-[(tert-butoxycarbonyl)amino]-5,16-dioxo-2-[(2-pyridin-2-ylthieno[2,3-d]pyrimidin-4-yl)oxy]-1,2,3,6,7,8,9,10,11,13a,14,15,16,16a-tetradecahydrocyclopropa[e]pyrrolo[1,2-a][1,4]diazacyclopentadecine-14a(5H)-carboxylic acid] were, in that order, 42 nM, 13 µM and 420 nM.
The like results for `O=C(CC1CC1)N[C@H]1CCCCC/C=C\[C@@H]2C[C@@]2(C(=O)O)NC(=O)[C@@H]2C[C@@H](Oc3nc(-c4ccccn4)nc4sccc34)CN2C1=O` [Example 31, (2R,6S,12Z,13aS,14aR,16aS)-6-[(Cyclopropylacetyl)amino]-5,16-dioxo-2-[(2-pyridin-2-ylthieno[2,3-d]pyrimidin-4-yl)oxy]-1,2,3,6,7,8,9,10,11,13a,14,15,16,16a-tetradecahydrocyclopropa[e]pyrrolo[1,2-a][1,4]diazacyclopentadecine-14a(5H)-carboxylic acid] were, in that order, 39 nM, 168 µM and 250 nM.
Regarding `Cn1ccnc1-c1cc2nccc(O[C@@H]3C[C@H]4C(=O)N[C@]5(C(=O)O)C[C@H]5/C=C\CCCCC[C@H](NC(=O)OC(C)(C)C)C(=O)N4C3)c2s1` [Example 86, (2R,6S,12Z,13aS,14aR,16aS)-6-[(tert-butoxycarbonyl)amino]-2-{[2-(1-methyl-1H-imidazol-2-yl)thieno[3,2-b]pyridin-7-yl]oxy}-5,16-dioxo-1,2,3,6,7,8,9,10,11,13a,14,15,16,16a-tetradecahydrocyclopropa[e]pyrrolo[1,2-a][1,4]diazacyclopentadecine-14a(5H)-carboxylic acid], the Ki in data set [1] is 69 nM. Moreover, the CC50 at 3 days in data set [2] is more than 320 µM. The same compound gave an EC50 in data set [3] of 15000 nM.
On the same counts, the results for `O=C(N[C@H]1CCCCC/C=C\[C@@H]2C[C@@]2(C(=O)O)NC(=O)[C@@H]2C[C@@H](Oc3nc(-c4ccccn4)nc4sccc34)CN2C1=O)OC1CCC1` [Example 28, (2R,6S,12Z,13aS,14aR,16aS)-6-{[(cyclobutyloxy)carbonyl]amino}-5,16-dioxo-2-[(2-pyridin-2-ylthieno[2,3-d]pyrimidin-4-yl)oxy]-1,2,3,6,7,8,9,10,11,13a,14,15,16,16a-tetradecahydrocyclopropa[e]pyrrolo[1,2-a][1,4]diazacyclopentadecine-14a(5H)-carboxylic acid] are 21 nM, 59 µM and 420 nM.
On to `Cn1ccnc1-c1cc2nccc(O[C@@H]3C[C@H]4C(=O)N[C@]5(C(=O)O)C[C@H]5/C=C\CCCCC[C@H](NC(=O)OC5CCCC5)C(=O)N4C3)c2s1` [Example 89, (2R,6S,12Z,13aS,14aR,16aS)-6-{[(Cyclopentyloxy)carbonyl]amino}-2-{[2-(1-methyl-1H-imidazol-2-yl)thieno[3,2-b]pyridin-7-yl]oxy}-5,16-dioxo-1,2,3,6,7,8,9,10,11,13a,14,15,16,16a-tetradecahydrocyclopropa[e]pyrrolo[1,2-a][1,4]diazacyclopentadecine-14a(5H)-carboxylic acid], for which the Ki in data set [1] is 14 nM and 13 nM. Besides, the CC50 at 3 days in data set [2] was more than 320 µM. The compound further gave an EC50 in data set [3] of 500 nM.
In the case of `O=C(N[C@H]1CCCCC/C=C\[C@@H]2C[C@@]2(C(=O)O)NC(=O)[C@@H]2C[C@@H](Oc3cc(-c4ccccn4)nc4ccsc34)CN2C1=O)OC1CCC1` [Example 13, (2R,6S,12Z,13aS,14aR,16aS)-6-{[(Cyclobutyloxy)carbonyl]amino}-5,16-dioxo-2-[(5-pyridin-2-ylthieno[3,2-b]pyridin-7-yl)oxy]-1,2,3,6,7,8,9,10,11,13a,14,15,16,16a-tetradecahydrocyclopropa[e]pyrrolo[1,2-a][1,4]diazacyclopentadecine-14a(5H)-carboxylic acid], the Ki in data set [1] stood at 9 nM. Also, the CC50 at 3 days in data set [2] was determined as 161 µM. For the same compound, in data set [3], a half-maximal response (EC50) required 310 nM.
The like results for `CC(C)Nc1cccc(-c2nc(O[C@@H]3C[C@H]4C(=O)N[C@]5(C(=O)O)C[C@H]5/C=C\CCCCC[C@H](NC(=O)OC(C)(C)C)C(=O)N4C3)c3sccc3n2)n1` [Example 79, (2R,6S,12Z,13aS,14aR,16aS)-6-[(Tert-butoxycarbonyl)amino]-2-({2-[6-(isopropylamino)pyridin-2-yl]thieno[3,2-d]pyrimidin-4-yl}oxy)-5,16-dioxo-1,2,3,6,7,8,9,10,11,13a,14,15,16,16a-tetradecahydrocyclopropa[e]pyrrolo[1,2-a][1,4]diazacyclopentadecine-14a(5H)-carboxylic acid] were, in that order, 11.3 nM, 212 µM and 180 nM.
For the compound `O=C(N[C@H]1CCCCC/C=C\[C@@H]2C[C@@]2(C(=O)O)NC(=O)[C@@H]2C[C@@H](Oc3nc(-c4ccccn4)nc4ccsc34)CN2C1=O)OC1CCCC1` [Example 41, (2R,6S,12Z,13aS,14aR,16aS)-6-{[(cyclopentyloxy)carbonyl]amino}-5,16-dioxo-2-[(2-pyridin-2-ylthieno[3,2-d]pyrimidin-4-yl)oxy]-1,2,3,6,7,8,9,10,11,13a,14,15,16,16a-tetradecahydrocyclopropa[e]pyrrolo[1,2-a][1,4]diazacyclopentadecine-14a(5H)-carboxylic acid], in data set [1], the Ki worked out at 5.2 nM. Moreover, the CC50 at 3 days in data set [2] turned out to be 87 µM. For the same compound, the response in data set [3] was half-maximal at 34 nM (EC50).
